This passage reports mass density and refractive index results from the NIST ThermoML archive (doi:10.1021/je200030k).

For series [1] the following is noted: 101.33 kPa, Liquid, Vibrating tube method.
Series [2] is described as follows: refractive index (Na D-line) (dimensionless). Conditions: 101.33 kPa, Liquid, Standard Abbe refractometry.

± gives the expanded uncertainty stated by the source.

With `CCCCO` [butan-1-ol], the mass density (as a rule, mass per unit of volume) in series [1] (298.15 K) is listed as 806 ± 1 kg/m3; in series [1] (303.15 K), 802.4 ± 1 kg/m3; in series [1] (308.15 K) it was 798.2 ± 1 kg/m3; in series [1] (313.15 K), 794.6 ± 1 kg/m3. Besides, the refractive index (in general, a measure of how strongly the sample bends light) in series [2] (298.15 K) stood at 1.397 ± 0.002; in series [2] (303.15 K), 1.395 ± 0.002; in series [2] (308.15 K), 1.393 ± 0.002; in series [2] (313.15 K), 1.391 ± 0.002.

Regarding `CCCCn1cc[n+](C)c1.NCC(=O)[O-]` [1-butyl-3-methylimidazolium glycinate], the mass density in series [1] (298.15 K) came to 1260.26 ± 1.1 kg/m3; in series [1] (303.15 K) it was 1257.2 ± 1.1 kg/m3; in series [1] (308.15 K) it was 1254.1 ± 1.1 kg/m3; in series [1] (313.15 K) it was 1250.77 ± 1.1 kg/m3. The refractive index was 1.52 ± 0.002 in series [2] (298.15 K), 1.519 ± 0.002 in series [2] (303.15 K), 1.517 ± 0.002 in series [2] (308.15 K) and 1.517 ± 0.002 in series [2] (313.15 K).

With `CC(C)O` [propan-2-ol], the mass density in series [1] (298.15 K) stood at 781.2 ± 1 kg/m3; in series [1] (303.15 K), 774 ± 1 kg/m3; in series [1] (308.15 K), 765.8 ± 1 kg/m3; in series [1] (313.15 K), 757.2 ± 1 kg/m3. The refractive index in series [2] (298.15 K) was 1.375 ± 0.002; in series [2] (303.15 K), 1.374 ± 0.002; in series [2] (308.15 K) it was 1.373 ± 0.002; in series [2] (313.15 K) it was 1.372 ± 0.002.
